The values that follow come from patent US20080021026A1, “BENZOTHIOPHENE INHIBITORS OF RHO KINASE” (priority 2006, published 2008).

For one experiment, the target named is T1, recombinant N-terminal GST-tagged human Rho kinase 2 (ROCK2, amino acids 1-552) (Homo sapiens, UniProt O75116).
T1 construct: ROCK2, amino acids 1-552; purchased Invitrogen Inc. PV3759
T1 sequence (O75116 1-552): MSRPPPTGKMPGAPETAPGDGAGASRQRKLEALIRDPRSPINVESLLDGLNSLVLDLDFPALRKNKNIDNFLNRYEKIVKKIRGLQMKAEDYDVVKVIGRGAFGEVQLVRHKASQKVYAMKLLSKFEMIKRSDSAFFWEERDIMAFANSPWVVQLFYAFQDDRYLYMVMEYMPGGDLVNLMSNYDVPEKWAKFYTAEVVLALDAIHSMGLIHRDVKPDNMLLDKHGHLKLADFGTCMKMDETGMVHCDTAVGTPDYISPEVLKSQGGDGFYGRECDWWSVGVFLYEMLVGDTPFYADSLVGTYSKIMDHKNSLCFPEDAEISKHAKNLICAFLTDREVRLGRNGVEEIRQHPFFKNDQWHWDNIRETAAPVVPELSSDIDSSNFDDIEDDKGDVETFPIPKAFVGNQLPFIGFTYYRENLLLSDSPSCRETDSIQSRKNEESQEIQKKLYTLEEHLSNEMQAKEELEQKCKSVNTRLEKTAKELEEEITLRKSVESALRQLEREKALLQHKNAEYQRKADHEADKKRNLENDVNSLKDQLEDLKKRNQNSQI
Nature of the experiment: In vitro Rho kinase assay (luciferase-based ATP consumption), ROCK2. It is filed as biochemical. The following applies: ROCK2 IC50, recombinant GST-tagged human ROCK2, luciferase-based ATP consumption. Here is the method:
In Vitro Rho Kinase Assay
Rho kinase biochemical assays described below depend on firefly luciferase-based, indirect measurement of total ATP consumption by the kinase following incubation with substrate and ATP. 25 μl of Rho kinase assay buffer (20 mM Tris-HCL [pH 7.5], 1 mM MgCl2, 0.4 mM CaCl2, 0.15 mM EGTA, 0.1 mg/ml bovine serum albumin) containing 0.82 μg/ml of recombinant N-terminal GST-tagged human Rho kinase 1 (ROCK1, amino acids 1-535, Invitrogen Inc., cat. #PV-3691) or recombinant N-terminal GST-tagged human Rho kinase 2 (ROCK2, amino acids 1-552, Invitrogen Inc., cat #PV3759), 100 μg/ml S6 peptide substrate (related to amino acids 218-249 of the human 40S ribosomal protein S6, and suitable for ROCK1 or ROCK2, e.g. Upstate/Millipore Inc., cat #12-420), and 3 µM ATP are dispensed to wells of a 384 multi-well opaque plate. The plate is centrifuged for 30 seconds at approximately 200×g. 240 nl of test compound in DMSO is dispensed to each well by passive pin transfer. The lag phase of this in vitro kinase reaction permits addition of compounds soon after the reaction initiates. The reaction is allowed to incubate at 30° C. for 2 hours. The assay plates are sealed and maintained in a humidified environment. After 2 hours, 25 μl of easylite protein kinase assay reagent (Perkin-Elmer, Inc.) is dispensed. After an additional 10 minute incubation at room temperature (about 22° C.), luminescence activity is measured on a Molecular Devices Analyst multi-mode plate reader or other suitable plate reader. Kinase inhibition results in less ATP consumption, and therefore increased luminescence signal. Negative control activity is measured with DMSO lacking any test compound. The positive control is 2-methyl-1-(4-methylisoquinolin-5-ylsulfonyl)perhydro-1,4-diazepine hydrochloride (aka H-1152P, HCl salt). Efficacy is measured as a percentage of positive control activity. […] In some cases, kinase reactions and compound testing are performed in 1536 multi-well plates under similar conditions, with assay volumes appropriately scaled. The designation NT means the cited example was not tested.
As a reminder, the IC50 is the concentration needed to halve the response being measured. `Cc1c(-c2ccnc(N)n2)sc2ccc(C(=O)NCCc3ccccc3Cl)cc12` [Example 427, Cc1c(sc2ccc(cc12)C(═O)NCCc3ccccc3Cl)-c4ccnc(N)n4]: the IC50 was less than 5 µM.

Staying with this experiment, now noted: recombinant GST-tagged human ROCK2, luciferase-based ATP consumption; read-out: ROCK2 IC50.
For the compound `Cc1c(-c2ccnc(N)n2)sc2ccc(C(=O)NCc3cccc(C(F)(F)F)c3)cc12` [Example 445, Cc1c(sc2ccc(cc12)C(═O)NCc3cccc(c3)C(F)(F)F)-c4ccnc(N)n4], the IC50 is less than 5 µM. Take `Cc1c(-c2ccnc(N)n2)sc2ccc(C(=O)N(C)C)cc12` [Example 459, CN(C)C(═O)c1ccc2sc(c(C)c2c1)-c3ccnc(N)n3]: the IC50 is less than 5 µM. Turning to `Cc1c(-c2ccnc(N)n2)sc2ccc(C(=O)NCc3ccccc3)cc12` [Example 363, Cc1c(sc2ccc(cc12)C(═O)NCc3ccccc3)-c4ccnc(N)n4], the IC50 was less than 5 µM.

On to `Cc1c(-c2ccnc(N)n2)sc2ccc(C(=O)N[C@H](C)c3ccccc3)cc12` [Example 377, C[C@@H](NC(═O)c1ccc2sc(c(C)c2c1)-c3ccnc(N)n3)c4ccccc4], for which the IC50 was less than 5 µM. Consider `Cc1c(-c2ccnc(N)n2)sc2ccc(C(=O)NC(CO)C(C)C)cc12` (stereo not shown) [Example 362, CC(C)C(CO)NC(═O)c1ccc2sc(c(C)c2c1)-c3ccnc(N)n3], for which the 50% inhibitory concentration (IC50) is less than 5 µM.

With `COc1ccc(CCNC(=O)c2ccc3sc(-c4ccnc(N)n4)c(C)c3c2)cc1` [Example 423, COc1ccc(CCNC(═O)c2ccc3sc(c(C)c3c2)-c4ccnc(N)n4)cc1], the IC50 is less than 5 µM. Same read-out and setting: for `CCOC(=O)C1CCCN(C(=O)c2ccc3sc(-c4ccnc(N)n4)c(C)c3c2)C1` (stereo not shown) [Example 510, CCOC(═O)C1CCCN(C1)C(═O)c2ccc3sc(c(C)c3c2)-c4ccnc(N)n4] the value was less than 5 µM; for `Cc1c(-c2ccnc(N)n2)sc2ccc(C(=O)NCc3ccc(C(C)C)cc3)cc12` [Example 419, CC(C)c1ccc(CNC(═O)c2ccc3sc(c(C)c3c2)-c4ccnc(N)n4)cc1], less than 5 µM. On to `COc1cccc(N2CCN(C(=O)c3ccc4sc(-c5ccnc(N)n5)c(C)c4c3)CC2)c1` [Example 542, COc1cccc(c1)N2CCN(CC2)C(═O)c3ccc4sc(c(C)c4c3)-c5ccnc(N)n5], for which the IC50 was more than 5 µM. Still for that read-out and setting: the value for `CCN(C(=O)c1ccc2sc(-c3ccnc(N)n3)c(C)c2c1)C1CCCCC1` [Example 493, CCN(C1CCCCC1)C(═O)c2ccc3sc(c(C)c3c2)-c4ccnc(N)n4] was less than 5 µM; that for `Cc1c(-c2ccnc(N)n2)sc2ccc(C(=O)N3C[C@@H](C)N[C@@H](C)C3)cc12` [Example 485, C[C@@H]1CN(C[C@H](C)N1)C(═O)c2ccc3sc(c(C)c3c2)-c4ccnc(N)n4] was less than 5 µM; that for `Cc1c(-c2ccnc(N)n2)sc2ccc(C(=O)NCc3cc(F)cc(F)c3)cc12` [Example 414, Cc1c(sc2ccc(cc12)C(═O)NCc3cc(F)cc(F)c3)-c4ccnc(N)n4] was less than 5 µM. Same read-out and setting: the value for `Cc1c(-c2ccnc(N)n2)sc2ccc(C(=O)NCCN(C)C)cc12` [Example 351, CN(C)CCNC(═O)c1ccc2sc(c(C)c2c1)-c3ccnc(N)n3] was less than 5 µM.

As to `Cc1c(-c2ccnc(N)n2)sc2ccc(C(=O)N3CCC(O)(c4ccc(Cl)cc4)CC3)cc12` [Example 558, Cc1c(sc2ccc(cc12)C(═O)N3CCC(O)(CC3)c4ccc(Cl)cc4)-c5ccnc(N)n5], the IC50 is more than 5 µM. On the same count and under the same terms, for `Cc1c(-c2ccnc(N)n2)sc2ccc(C(=O)NC(C)CO)cc12` (stereo not shown) [Example 344, CC(CO)NC(═O)c1ccc2sc(c(C)c2c1)-c3ccnc(N)n3] the value was less than 5 µM. Same read-out and setting: for `CCN(CC)C(=O)c1ccc2sc(-c3ccnc(N)n3)c(C)c2c1` [Example 462, CCN(CC)C(═O)c1ccc2sc(c(C)c2c1)-c3ccnc(N)n3] the value was less than 5 µM; for `Cc1c(-c2ccnc(N)n2)sc2ccc(C(=O)N3CCC[C@@H]3CO)cc12` [Example 476, Cc1c(sc2ccc(cc12)C(═O)N3CCC[C@@H]3CO)-c4ccnc(N)n4], less than 5 µM. Same read-out and setting: for `CCCC(C)NC(=O)c1ccc2sc(-c3ccnc(N)n3)c(C)c2c1` (stereo not shown) [Example 347, CCCC(C)NC(═O)c1ccc2sc(c(C)c2c1)-c3ccnc(N)n3] the value was less than 5 µM; for `Cc1c(-c2ccnc(N)n2)sc2ccc(C(=O)N[C@H](CO)Cc3ccccc3)cc12` [Example 422, Cc1c(sc2ccc(cc12)C(═O)N[C@H](CO)Cc3ccccc3)-c4ccnc(N)n4], less than 5 µM; for `Cc1c(-c2ccnc(N)n2)sc2ccc(C(=O)NCCc3ccc(O)cc3)cc12` [Example 400, Cc1c(sc2ccc(cc12)C(═O)NCCc3ccc(O)cc3)-c4ccnc(N)n4], less than 5 µM. For the compound `C#CCN(C)C(=O)c1ccc2sc(-c3ccnc(N)n3)c(C)c2c1` [Example 461, CN(CC#C)C(═O)c1ccc2sc(c(C)c2c1)-c3ccnc(N)n3], the 50% inhibitory concentration (IC50) is less than 5 µM. Regarding `Cc1c(-c2ccnc(N)n2)sc2ccc(C(=O)N(C)C[C@H](O)c3ccc(O)c(O)c3)cc12` [Example 528, CN(C[C@H](O)c1ccc(O)c(O)c1)C(═O)c2ccc3sc(c(C)c3c2)-c4ccnc(N)n4], the IC50 was less than 5 µM.

For the compound `Cc1c(-c2ccnc(N)n2)sc2ccc(C(=O)NCc3ccccn3)cc12` [Example 365, Cc1c(sc2ccc(cc12)C(═O)NCc3ccccn3)-c4ccnc(N)n4], the IC50 is less than 5 µM. The same measure, in the same setting: for `Cc1c(-c2ccnc(N)n2)sc2ccc(C(=O)N3CCN(CC4CCCCC4)CC3)cc12` [Example 527, Cc1c(sc2ccc(cc12)C(═O)N3CCN(CC3)CC4CCCCC4)-c5ccnc(N)n5] the value was more than 5 µM; for `Cc1c(-c2ccnc(N)n2)sc2ccc(C(=O)NCC3CC3)cc12` [Example 340, Cc1c(sc2ccc(cc12)C(═O)NCC3CC3)-c4ccnc(N)n4], less than 5 µM; for `Cc1c(-c2ccnc(N)n2)sc2ccc(C(=O)NCc3ccc(Cl)c(Cl)c3)cc12` [Example 446, Cc1c(sc2ccc(cc12)C(═O)NCc3ccc(Cl)c(Cl)c3)-c4ccnc(N)n4], more than 5 µM.

For `Cc1c(-c2ccnc(N)n2)sc2ccc(C(=O)N3CCN(c4ccc(C(F)(F)F)cn4)CC3)cc12` [Example 568, Cc1c(sc2ccc(cc12)C(═O)N3CCN(CC3)c4ccc(cn4)C(F)(F)F)-c5ccnc(N)n5], the IC50 is more than 5 µM. On the same count and under the same terms, for `Cc1c(-c2ccnc(N)n2)sc2ccc(C(=O)NCc3ccccc3OC(F)(F)F)cc12` [Example 453, Cc1c(sc2ccc(cc12)C(═O)NCc3ccccc3OC(F)(F)F)-c4ccnc(N)n4] the value was more than 5 µM. On the same count and under the same terms, for `Cc1ccc(C)c(CNC(=O)c2ccc3sc(-c4ccnc(N)n4)c(C)c3c2)c1` [Example 393, Cc1ccc(C)c(CNC(═O)c2ccc3sc(c(C)c3c2)-c4ccnc(N)n4)c1] the value was less than 5 µM. As to `Cc1c(-c2ccnc(N)n2)sc2ccc(C(=O)NCc3ccc(F)c(F)c3)cc12` [Example 413, Cc1c(sc2ccc(cc12)C(═O)NCc3ccc(F)c(F)c3)-c4ccnc(N)n4], the IC50 was less than 5 µM. On to `Cc1c(-c2ccnc(N)n2)sc2ccc(C(=O)NC3CCc4ccccc43)cc12` (stereo not shown) [Example 391, Cc1c(sc2ccc(cc12)C(═O)NC3CCc4ccccc34)-c5ccnc(N)n5], for which the IC50 was less than 5 µM. Same read-out and setting: the value for `Cc1ccc([C@H](C)NC(=O)c2ccc3sc(-c4ccnc(N)n4)c(C)c3c2)cc1` [Example 394, C[C@H](NC(═O)c1ccc2sc(c(C)c2c1)-c3ccnc(N)n3)c4ccc(C)cc4] was more than 5 µM; that for `Cc1ccc(CNC(=O)c2ccc3sc(-c4ccnc(N)n4)c(C)c3c2)cc1C` [Example 398, Cc1ccc(CNC(═O)c2ccc3sc(c(C)c3c2)-c4ccnc(N)n4)cc1C] was more than 5 µM.

As for `Cc1c(-c2ccnc(N)n2)sc2ccc(C(=O)NC(C)C(C)C)cc12` (stereo not shown) [Example 349, CC(C)C(C)NC(═O)c1ccc2sc(c(C)c2c1)-c3ccnc(N)n3], the IC50 was more than 5 µM. In the case of `Cc1c(-c2ccnc(N)n2)sc2ccc(C(=O)N3CC(C)OC(C)C3)cc12` (stereo not shown) [Example 488, CC1CN(CC(C)O1)C(═O)c2ccc3sc(c(C)c3c2)-c4ccnc(N)n4], the IC50 was less than 5 µM. The same measure, in the same setting: the value for `Cc1c(-c2ccnc(N)n2)sc2ccc(C(=O)N3CCN(C(=O)OC(C)(C)C)C[C@H]3CO)cc12` [Example 561, Cc1c(sc2ccc(cc12)C(═O)N3CCN(C[C@H]3CO)C(═O)OC(C)(C)C)-c4ccnc(N)n4] was more than 5 µM; that for `Cc1c(-c2ccnc(N)n2)sc2ccc(C(=O)N3CCCC(C(N)=O)C3)cc12` (stereo not shown) [Example 496, Cc1c(sc2ccc(cc12)C(═O)N3CCCC(C3)C(N)═O)-c4ccnc(N)n4] was less than 5 µM. In the case of `Cc1c(-c2ccnc(N)n2)sc2ccc(C(=O)NC(C)C)cc12` [Example 334, CC(C)NC(═O)c1ccc2sc(c(C)c2c1)-c3ccnc(N)n3], the half-maximal inhibitory concentration (IC50) is more than 5 µM.

With `CCN(C(=O)c1ccc2sc(-c3ccnc(N)n3)c(C)c2c1)C(C)C` [Example 468, CCN(C(C)C)C(═O)c1ccc2sc(c(C)c2c1)-c3ccnc(N)n3], the IC50 is less than 5 µM.
